From patent US20090029949A1, “GPCR Ligands Identified by Computational Modeling” (priority 2006, published 2009)

What was measured:
[1] = biological target: T1, S1P1 mutant F5.43Y (Homo sapiens, UniProt P21453, F205Y); test: [35S]GTPγS binding, S1P1 F5.43Y; type: biochemical; conditions: S1P-induced, S1P1 F5.43Y in RH7777 cells
T1 construct: expressed in transfected cells; host or cells: RH7777 (transient, pcDNA3.1)
Procedure: (§1) RH7777 and HEK-293 cells (ATCC, Manassas, Va.) were maintained in Dulbecco's modified minimal essential medium (DMEM) containing 10% fetal bovine serum (Hyclone, Logan, Utah). Cells (2×10^6) were transfected with 2 μg of plasmid DNA with Effectene (Qiagen, Valencia, Calif.) according to the manufacturer's instructions, for 24 h. Before ligand binding and receptor activation assays, the cells were washed twice with serum-free DMEM and serum-starved for at least 6 h.
(§2) S1P1 Receptor Activation Assays Receptor functional assays were performed in transiently transfected RH7777 cells by measuring S1P-activated [^35S]GTPγS binding as previously described (28).

[2] = biological target: T2, S1P1 mutant T5.49S (Homo sapiens, UniProt P21453, T211S); test: [35S]GTPγS binding, S1P1 T5.49S; type: biochemical; conditions: S1P-induced, S1P1 T5.49S in RH7777 cells
T2 construct: expressed in transfected cells; host or cells: RH7777 (transient, pcDNA3.1)
Procedure: as §1, §2

[3] = biological target: T3, S1P1 mutant K5.38A (Homo sapiens, UniProt P21453, K200A); test: [35S]GTPγS binding, S1P1 K5.38A; type: biochemical; conditions: S1P-induced, S1P1 K5.38A in RH7777 cells
T3 construct: expressed in transfected cells; host or cells: RH7777 (transient, pcDNA3.1)
Procedure: as §1, §2

[4] = biological target: T4, S1P1 mutant C5.44D (Homo sapiens, UniProt P21453, C206D); test: [35S]GTPγS binding, S1P1 C5.44D; type: biochemical; conditions: S1P-induced, S1P1 C5.44D in RH7777 cells
T4 construct: expressed in transfected cells; host or cells: RH7777 (transient, pcDNA3.1)
Procedure: as §1, §2

[5] = biological target: T5, S1P1 mutant C5.44I (Homo sapiens, UniProt P21453, C206I); test: [35S]GTPγS binding, S1P1 C5.44I; type: biochemical; conditions: S1P-induced, S1P1 C5.44I in RH7777 cells
T5 construct: expressed in transfected cells; host or cells: RH7777 (transient, pcDNA3.1)
Procedure: as §1, §2

[6] = biological target: T6, S1P1 mutant L5.51G (Homo sapiens, UniProt P21453, L213G); test: [35S]GTPγS binding, S1P1 L5.51G; type: biochemical; conditions: S1P-induced, S1P1 L5.51G in RH7777 cells
T6 construct: expressed in transfected cells; host or cells: RH7777 (transient, pcDNA3.1)
Procedure: as §1, §2

[7] = biological target: T7, S1P1 mutant W6.48A (Homo sapiens, UniProt P21453, W269A); test: [35S]GTPγS binding, S1P1 W6.48A; type: biochemical; conditions: S1P-induced, S1P1 W6.48A in RH7777 cells
T7 construct: expressed in transfected cells
Procedure: as §1, §2

[8] = biological target: T8, S1P1 mutant M3.32G (Homo sapiens, UniProt P21453, M124G); test: [35S]GTPγS binding, S1P1 M3.32G; type: biochemical; conditions: S1P-induced, S1P1 M3.32G in RH7777 cells
T8 construct: expressed in transfected cells; host or cells: RH7777
Procedure: as §1, §2

[9] = biological target: T9, S1P1 mutant L6.41G (Homo sapiens, UniProt P21453, L262G); test: [35S]GTPγS binding, S1P1 L6.41G; type: biochemical; conditions: S1P-induced, S1P1 L6.41G in RH7777 cells; mutant not detected at the cell surface
T9 construct: expressed in transfected cells; host or cells: RH7777
Procedure: as §1, §2

[10] = biological target: T10, S1P1 double mutant L3.43, 3.44E (Homo sapiens, UniProt P21453, L135E/L136E); test: [35S]GTPγS binding, S1P1 L3.43, 3.44E; type: biochemical; conditions: S1P-induced, S1P1 L3.43, 3.44E in RH7777 cells
T10 construct: expressed in transfected cells; host or cells: RH7777
Procedure: as §1, §2

[11] = biological target: T11, S1P1 double mutant L3.43, 3.44G (Homo sapiens, UniProt P21453, L135G/L136G); test: [35S]GTPγS binding, S1P1 L3.43, 3.44G; type: biochemical; conditions: S1P-induced, S1P1 L3.43, 3.44G in RH7777 cells
T11 construct: expressed in transfected cells; host or cells: RH7777
Procedure: as §1, §2

[12] = biological target: T12, WT S1P1 (Homo sapiens, UniProt P21453); conditions: WT receptor, inventors' system (ref 28); read-out: apparent KD for S1P binding; cited from earlier work
[13] = biological target: T13, S1P1 mutant L3.36E (Homo sapiens, UniProt P21453, L128E); test: [32P]S1P competition binding, HEK-293 cells, L3.36E; parameters: expressed in transfected cells; conditions: S1P1 L3.36E
Procedure: For the competition assays, HEK-293 cells were used. Briefly, 4×10^5 cells were plated in 24-well dishes and allowed to adhere overnight. The cells were then transfected with 0.4 μg of the cDNA using Lipofectamine 2000 (Invitrogen) and the transfection proceeded for 48 h. After washing the cells twice with ice-cold binding buffer (20 mM Tris-HCl, pH 7.4 and 150 mM NaCl), 0.1 nM [^32P]S1P and competing concentrations of cold S1P (1 nM-10 μM), resuspended in binding buffer+4% BSA, were applied to the cells and incubated on ice for 30 min. After washing the cells twice with ice-cold binding buffer+0.4% BSA, the cells were lysed with 0.5% SDS and equilibrated in scintillation fluid. The samples were measured in triplicate.

[14] = biological target: T12, WT S1P1; test: Ligand-induced [35S]GTPγS binding, WT S1P1; type: biochemical; parameters: expressed in transfected cells; host or cells: RH7777 (transient, pcDNA3.1); conditions: S1P-induced, WT-S1P1 in RH7777 cells
Procedure: as §1, §2

[15] = biological target: T13, S1P1 mutant L3.36E; test: [32P]S1P radioligand binding, RH7777 cells, L3.36E; parameters: expressed in transfected cells; host or cells: RH7777 (transient, pcDNA3.1); conditions: radioligand 50 nM, S1P1 L3.36E
Procedure: as §1
The S1P binding assays were done essentially as previously described (28). Transfected RH7777 cells (5×10^5) were incubated at 4° C. in 20 mM Tris-HCl (pH 7.5) binding buffer containing 100 mM NaCl, 15 mM NaF, protease inhibitor cocktail (Sigma-Aldrich), and 0.2 mg/ml essentially fatty-acid free BSA with 1 nM [^32P]S1P in 50 nM S1P for 40 min. Cells were centrifuged and washed twice in binding buffer. The final pellet was resuspended in 2:1 CHCl3/MeOH and the suspension was equilibrated in scintillation fluid overnight. Cell-bound radioactivity was measured by liquid scintillation counting using a Beckman LS5000 TA counter (Beckman Coulter, Irvine, Calif.). Specific binding was defined as the difference between total binding and non-specific binding (in the presence of 2-5 μM cold S1P). Standard errors were computed on the basis of triplicate samples from two simultaneous transfections.

T12 sequence (P21453 whole entry): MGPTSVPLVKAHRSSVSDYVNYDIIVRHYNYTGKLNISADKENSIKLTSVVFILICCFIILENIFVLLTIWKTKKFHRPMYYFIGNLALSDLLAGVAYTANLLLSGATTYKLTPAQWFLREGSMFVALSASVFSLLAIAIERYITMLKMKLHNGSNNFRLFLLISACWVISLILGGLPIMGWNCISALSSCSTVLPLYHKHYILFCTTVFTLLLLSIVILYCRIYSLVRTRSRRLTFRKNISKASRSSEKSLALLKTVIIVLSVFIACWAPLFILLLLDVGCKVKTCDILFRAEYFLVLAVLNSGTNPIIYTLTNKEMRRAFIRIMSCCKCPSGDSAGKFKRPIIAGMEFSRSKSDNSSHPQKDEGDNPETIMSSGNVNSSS
T13 sequence (P21453 whole entry L128E): as the sequence (P21453 whole entry) above, with L128E counted along it
T7 sequence (P21453 whole entry W269A): as the sequence (P21453 whole entry) above, with W269A counted along it
T3 sequence (P21453 whole entry K200A): as the sequence (P21453 whole entry) above, with K200A counted along it
T1 sequence (P21453 whole entry F205Y): as the sequence (P21453 whole entry) above, with F205Y counted along it
T4 sequence (P21453 whole entry C206D): as the sequence (P21453 whole entry) above, with C206D counted along it
T9 sequence (P21453 whole entry L262G): as the sequence (P21453 whole entry) above, with L262G counted along it
T10 sequence (P21453 whole entry L135E/L136E): as the sequence (P21453 whole entry) above, with L135E, L136E counted along it
T6 sequence (P21453 whole entry L213G): as the sequence (P21453 whole entry) above, with L213G counted along it
T5 sequence (P21453 whole entry C206I): as the sequence (P21453 whole entry) above, with C206I counted along it
T2 sequence (P21453 whole entry T211S): as the sequence (P21453 whole entry) above, with T211S counted along it
T8 sequence (P21453 whole entry M124G): as the sequence (P21453 whole entry) above, with M124G counted along it
T11 sequence (P21453 whole entry L135G/L136G): as the sequence (P21453 whole entry) above, with L135G, L136G counted along it

EC50 [1]: 23 nM
Emax ([1]; read-out: % WT Emax + s.d.): 90%
EC50 [2]: 6.6 nM
Emax ([2]; read-out: % WT Emax + s.d.): 168%
EC50 [3]: 32.4 nM
Emax ([3]; read-out: % WT Emax + s.d.): 97%
EC50 [4]: 79 ± 17 nM
Emax ([4]; read-out: % WT Emax + s.d.): 85%
EC50 [5]: 20.4 ± 2.1 nM
Emax ([5]; read-out: % WT Emax + s.d.): 37%
EC50 [6]: 2.6 ± 2.1 nM
Emax ([6]; read-out: % WT Emax + s.d.): 46%
EC50 [7]: 13 ± 4.2 nM
Emax ([7]; read-out: % WT Emax + s.d.): 34 ± 1.5%
EC50 [8]: 35 ± 5 nM
Emax ([8]; read-out: % WT Emax + s.d.): 77%
% WT Emax + s.d. [9]: ∞
EC50 + s.d. [9]: ∞
% WT Emax + s.d. [10]: ∞
EC50 + s.d. [10]: ∞
% WT Emax + s.d. [11]: ∞
EC50 + s.d. [11]: ∞
Bmax [13]: 1980 fmol
Kd ([13]; competition with cold S1P, read-out: KD + s.d.): 27.8 nM
% WT Emax + s.d. [14]: 100 + 9.13 % WT
EC50 [14]: 1.4 ± 0.7 nM
[32P]S1P binding relative to WT [15]: > 50 % of the WT
SMILES: CCCCCCCCCCCCC/C=C/[C@@H](O)[C@@H](N)COP(=O)(O)O [S1P, Sphingosine 1-phosphate]
Kd [12]: 36 ± 2 nM
